Source: patent publication US9259482B2, “Conjugates of polymers having a therapeutically active agent and an angiogenesis targeting moiety attached thereto and uses thereof in the treatment of angiogenesis related diseases” (Ramot at Tel-Aviv University Ltd., priority 2008, dated 2016)
Like-named read-outs stand apart in the source and are kept apart here. Non-standard residues stand in square brackets, D forms with d.

What was measured:
[1] = test system: HUVEC; assay: cells; assay type: cell-based, human; settings: for IC50: HUVEC
Protocol: (§1) The anti-angiogenesis and anti-proliferative activity of the conjugates described herein was evaluated by the effect of the conjugates on the proliferation of HUVEC, U87 and PANC02 cells.
(§2) HUVEC were plated onto 24-well plate (1×10^4 cells/well) in endothelial cell basal medium 2 (EBM-2; Cambrex, USA) supplemented with 5% fetal bovine serum (FBS). Following 24 hours of incubation (37° C.; 5% CO2) medium was replaced with Endothelial cell growth medium-2 (EGM-2; Cambrex, USA). U87 and PANC02 cells were plated onto 96 well plate (2×10^3 cells/well) in DMEM supplemented with 5% FBS and incubated for 24 hours (37° C.; 5% CO2). Following 24 hours of incubation the medium was replaced with DMEM containing 10% FBS. Cells were challenged with the tested compounds at serial concentrations for 72 hours. After incubation the number of HUVEC were counted by Coulter Counter and U87, and PANC02 cells were counted by XTT respectively.

[2] = test system: HUVEC; assay: Endothelial cell adhesion assay on fibrinogen coated plates; assay type: cell-based, human; settings: for effect of free peptides on HUVEC adhesion: free peptide at 50 μM; for inhibition of HUVEC adhesion to fibrinogen: with a similar amount of PTX
Protocol: The ability of E-[c(RGDfk)2] and E-c(RGDfk) moieties (SEQ ID NOs: 2 and 41) in the conjugates to inhibit endothelial attachment to cellular matrix after conjugation, was assessed using an adhesion assay. Flat bottom 96-well culture plates (Nunc, Denmark) were coated with 0.5 μg/well fibrinogen overnight at 4° C. After washing three times with Phosphate buffered saline (PBS), the wells were blocked with 1% bovine serum albumin (BSA) for 1 hour at 37° C. and washed three times again with PBS. HUVEC were harvested in phosphate-buffered saline (137 mM NaCl, 2.7 mM KCl, 4.3 mM Na2HPO4, 1.4 mM KH2PO4, pH 7.3) with 2.5 mM EDTA and resuspended in EBM-2 serum-free media (Clonetics). HUVEC were incubated for 30 minutes, at room temperature, with the tested compounds. The treated HUVEC were plated at 5×10^4 cells per well and were allowed to attach for 1 hour at 37° C. After incubation, the unattached cells were removed by rinsing the wells with PBS. The attached cells were fixed with 3.7% formaldehyde, stained with 0.5% crystal violet and were imaged using Nikon TE2000E inverted microscope integrated with Nikon DS5 cooled CCD camera by 4× objective, brightfield technique. The number of attached cells was quantified with NIH ImageJ processing and analysis software. Non-specific binding was determined by adhesion of HUVEC cells, which were not incubated with any of the tested compounds, to BSA-coated plates.

[3] = test system: PANC02 murine pancreatic tumor cells; assay: Cell proliferation assay, PANC02; assay type: cell-based
Protocol: as §1, §2

[4] = test system: HUVEC; assay: Migration assay of HUVEC towards VEGF; assay type: cell-based, human; settings: equivalent concentrations of 100 nM PTX, conjugate with 5 mol % E-[c(RGDfk)2], 2.6 mol % PTX, FIG. 14
Protocol: The anti-angiogenesis activity of the conjugates was evaluated by examining the effect of the conjugates on the ability of HUVEC to migrate toward the Vascular Endothelial Growth Factor (VEGF).
Cell migration assay was performed using modified 8 μm Boyden chambers Transwells® (Costar Inc., USA) coated with 10 μg/ml fibronectin HUVEC (15×10^4 cells/100 μl) were challenged with the tested compounds that were added to the upper chamber of the transwells for 2 hours. Following incubation, cells were allowed to migrate to the underside of the chamber for 4 hours in the presence or absence of VEGF (20 ng/ml) in the lower chamber. Cells were then fixed and stained (Hema 3 Stain System; Fisher Diagnostics, USA). The stained migrated cells were imaged using Nikon TE2000E inverted microscope integrated with Nikon DS5 cooled CCD camera by 10× objective, brightfield illumination. Migrated cells from the captured images per membrane were counted using NIH image software. Migration was normalized to the percent of migration toward VEGF of HUVEC which were not incubated with any compound. The extent of migration is inversely proportional to the anti-angiogenesis activity of the compounds.

[5] = test system: HUVEC; assay: Capillary-like tube formation assay; assay type: cell-based, human; settings: equivalent concentrations of 10 nM (PTX) and 19 nM (E-[c(RGDfk)2]), conjugate with 5 mol % E-[c(RGDfk)2], 2.6 mol % PTX, FIG. 16B
Protocol: The anti-angiogenesis activity of the conjugates was evaluated by the effect of the conjugates on the ability of HUVEC cells to form capillary-like tube structures.
The surface of 24-well plates was coated with Matrigel matrix (50 μl/well) (BD Biosciences, USA) on ice and was then allowed to polymerize at 37° C. for 30 minutes. HUVEC (3×10^4 cells) were challenged with the tested compounds, and were seeded on coated plates in the presence of complete EGM-2 medium. After 8 hours of incubation (37° C.; 5% CO2), wells were imaged using Nikon TE2000E inverted microscope integrated with Nikon DS5 cooled CCD camera by 4× objective, brightfield technique. During the tube formation assay endothelial cells directionally migrate to align, branch and form polygonal networks (i.e. tube like structures). The extent of capillary-like tube structures is inversely proportional to the anti-angiogenesis activity of the compounds.

[6] = test system: U87 human glioblastoma cells; assay: Cell proliferation assay, U87; assay type: cell-based
Protocol: as §1, §2

[7] = biological target: T1, αvβ3 integrin receptor (Homo sapiens, UniProt P05106+P06756); assay: αvβ3 interaction with fluorescently labeled conjugates in HUVEC; assay type: cell-based
T1 construct: endogenous in cells; host or cells: HUVEC
Protocol: A fluorescence probe, Oregon Green-cadaverine (OG), was conjugated to PGA conjugates through the free carboxylic groups (see Example 5 for synthesis description), in order to study the cellular uptake and trafficking.
HUVEC were plated onto 6 mm plates (5×10^5 cells/plate) in EBM-2 (Cambrex, USA) supplemented with 5% FBS. Following 24 hours of incubation (37° C.; 5% CO2), cells were challenged with either PGA-OG, PGA-c(RADfk)-OG (SEQ ID NO: 24) or PGA-E-[c(RGDfk)2]-OG (SEQ ID NO:25) diluted in EGM-2 medium for 5, 10, 15, 30 or 60 minutes. Cells were then washed in PBS (×3), harvested with PBS containing 2.5 mM EDTA and analyzed with the ImageStream 100 imaging flow cytometer (Amnis). Analysis was performed using IDEAS software.

T1 sequence (P06756 31-889 limits assumed): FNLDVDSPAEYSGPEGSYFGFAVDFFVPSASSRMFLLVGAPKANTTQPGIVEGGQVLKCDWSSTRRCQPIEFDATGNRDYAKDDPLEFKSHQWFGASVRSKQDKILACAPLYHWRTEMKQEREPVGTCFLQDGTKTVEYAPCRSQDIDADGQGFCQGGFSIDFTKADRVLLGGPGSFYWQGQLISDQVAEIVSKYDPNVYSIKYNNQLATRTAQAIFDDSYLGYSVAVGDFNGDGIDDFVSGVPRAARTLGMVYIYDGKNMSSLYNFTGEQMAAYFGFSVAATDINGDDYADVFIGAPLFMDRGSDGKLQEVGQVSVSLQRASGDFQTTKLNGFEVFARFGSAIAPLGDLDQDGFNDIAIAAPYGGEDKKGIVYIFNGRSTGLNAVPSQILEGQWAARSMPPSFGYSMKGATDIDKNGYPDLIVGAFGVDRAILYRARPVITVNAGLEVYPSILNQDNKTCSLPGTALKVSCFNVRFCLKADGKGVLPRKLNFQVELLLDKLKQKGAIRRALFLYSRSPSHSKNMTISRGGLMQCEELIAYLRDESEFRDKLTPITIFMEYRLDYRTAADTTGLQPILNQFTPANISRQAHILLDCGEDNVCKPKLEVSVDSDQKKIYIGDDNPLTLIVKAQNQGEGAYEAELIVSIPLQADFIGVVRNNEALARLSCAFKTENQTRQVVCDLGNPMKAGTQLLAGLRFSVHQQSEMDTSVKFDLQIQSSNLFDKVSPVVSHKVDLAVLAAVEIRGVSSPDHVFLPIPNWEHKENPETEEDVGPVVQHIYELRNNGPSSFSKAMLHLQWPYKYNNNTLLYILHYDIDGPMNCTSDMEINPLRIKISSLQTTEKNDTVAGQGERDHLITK
T1 sequence (P06756 891-1048 limits assumed): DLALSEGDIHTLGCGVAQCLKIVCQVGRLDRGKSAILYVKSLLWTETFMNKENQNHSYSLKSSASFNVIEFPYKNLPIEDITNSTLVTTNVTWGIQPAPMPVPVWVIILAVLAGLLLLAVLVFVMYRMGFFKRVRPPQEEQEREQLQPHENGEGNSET
T1 sequence (P05106 27-788): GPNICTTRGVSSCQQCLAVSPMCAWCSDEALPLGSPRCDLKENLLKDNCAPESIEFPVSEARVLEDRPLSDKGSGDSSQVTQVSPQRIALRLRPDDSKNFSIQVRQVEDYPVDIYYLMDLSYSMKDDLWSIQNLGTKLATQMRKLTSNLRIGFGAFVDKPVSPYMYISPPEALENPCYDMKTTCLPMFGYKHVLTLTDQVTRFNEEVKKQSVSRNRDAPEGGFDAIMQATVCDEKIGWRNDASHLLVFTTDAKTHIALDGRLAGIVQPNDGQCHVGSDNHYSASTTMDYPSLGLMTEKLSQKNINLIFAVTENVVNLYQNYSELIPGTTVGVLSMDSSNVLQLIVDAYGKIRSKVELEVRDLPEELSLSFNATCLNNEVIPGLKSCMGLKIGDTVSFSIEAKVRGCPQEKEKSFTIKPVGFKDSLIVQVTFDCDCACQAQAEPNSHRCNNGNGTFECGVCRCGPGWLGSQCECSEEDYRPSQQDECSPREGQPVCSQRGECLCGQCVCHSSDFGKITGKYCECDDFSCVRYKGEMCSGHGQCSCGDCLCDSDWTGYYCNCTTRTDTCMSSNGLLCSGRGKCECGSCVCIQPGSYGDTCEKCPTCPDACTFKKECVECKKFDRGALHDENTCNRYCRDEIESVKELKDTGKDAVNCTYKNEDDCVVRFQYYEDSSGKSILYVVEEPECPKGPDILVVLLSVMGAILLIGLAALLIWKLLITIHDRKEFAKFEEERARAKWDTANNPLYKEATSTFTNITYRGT

CC(=O)O[C@H]1C(=O)[C@@]2(C)[C@H]([C@H](OC(=O)c3ccccc3)[C@]3(O)C[C@H](OC(=O)[C@H](O)[C@@H](NC(=O)c4ccccc4)c4ccccc4)C(C)=C1C3(C)C)[C@]1(OC(C)=O)CO[C@@H]1C[C@@H]2O [PTX, Paclitaxel]
IC50 ([1]; Homo sapiens, nM PTX, FIG. 12A, read-out: IC50 of HUVEC proliferation): ~0.01 nM
IC50 ([1]; Homo sapiens, 72 hours, bis-cyclic RGD compounds (X = 2), NA = did not reach IC50 in the concentrations used, 'a -- b' = bell-shaped curve, read-out: IC50 (nM) of PGA- PTX-E-[c(RGDfk)2] (SEQ ID NO: 18) 2.6 mol % PTX, 5 mol % RGD): 0.01 nM
IC50 ([1]; Homo sapiens, 72 hours, bis-cyclic RGD compounds (X = 2), NA = did not reach IC50 in the concentrations used, 'a -- b' = bell-shaped curve, read-out: IC50 (nM) of PGA- PTX-E-[c(RGDfk)2] (SEQ ID NO: 18) 5 mol % PTX, 3.9 mol % RGD): 0.009 nM
IC50 ([1]; Homo sapiens, 72 hours, experiment with monocyclic RGD compounds (X = 1), NA = did not reach IC50 in the concentrations used, 'a -- b' = bell-shaped curve, read-out: IC50 (nM) of PGA- PTX-E-c(RGDfk) (SEQ ID NO: 16) 2.1 mol % PTX, 5 mol % RGD): 0.0085 nM
effect on endothelial cell adhesion ([2]; free PTX, PGA and combinations, FIG. 15): negligent effect
IC50 ([3]; Mus musculus, Panc02, nM PTX, equivalent doses, FIG. 12C, read-out: IC50 of PANC02 proliferation): ~200 nM
IC50 ([3]; Mus musculus, PANC02, 72 hours, bis-cyclic RGD compounds (X = 2), NA = did not reach IC50 in the concentrations used, read-out: IC50 (nM) of PGA- PTX-E-[c(RGDfk)2] (SEQ ID NO: 18) 5 mol % PTX, 3.9 mol % RGD): 200 nM
inhibition at 0.1 µM ([4]; Homo sapiens, HUVEC): ~55%
inhibition at 0.01 µM ([5]; Homo sapiens, HUVEC, read-out: inhibition of the formation of tubular structures of HUVEC): ~50%
IC50 ([6]; Homo sapiens, U87, 72 hours, bis-cyclic RGD compounds (X = 2), NA = did not reach IC50 in the concentrations used, 'a -- b' = bell-shaped curve, read-out: IC50 (nM) of PGA- PTX-E-[c(RGDfk)2] (SEQ ID NO: 18) 5 mol % PTX, 3.9 mol % RGD): 0.045 nM
IC50 ([6]; Homo sapiens, nM PTX, equivalent doses, FIG. 12B, read-out: IC50 of U87 proliferation): ~0.01 nM

c[Arg-Gly-Asp-Phe-Lys] [E-c(RGDfk)]
effect of free peptides on HUVEC adhesion [2]: completely abrogated HUVEC adhesion

c(RADfk): inactive cyclic peptide RAD, negative control (SEQ ID NO:40) (cyclo(RAD[dF]K); not fully specified (residue 5))
effect on HUVEC proliferation ([1]; FIG. 12A): no effect even at those high concentrations
effect of free peptides on HUVEC adhesion [2]: no effect
inhibition of the migration of HUVEC towards VEGF [4]: about 30%

PGA-c(RADfk)-OG (cyclo(RAD[dF]K); not fully specified (residue 5); also: polyglutamic acid polymer conjugate, Oregon Green label)
time at which conjugate-cell adherence was first observed ([7]; ImageStream 100 imaging flow cytometer): 15 min
extent of binding / uptake by HUVEC ([7]; OG fluorescence, FIGS. 11B, 11C): bound to a much lesser extent

PGA-c(RADfk) (cyclo(RAD[dF]K); not fully specified (residue 5); also: polyglutamic acid polymer conjugate)
IC50 ([1]; 72 hours, bis-cyclic RGD compounds (X = 2), NA = did not reach IC50 in the concentrations used, 'a -- b' = bell-shaped curve, read-out: IC50 (nM) of PGA- PTX-E-[c(RGDfk)2] (SEQ ID NO: 18) 2.6 mol % PTX, 5 mol % RGD): 5000 nM
IC50 ([1]; 72 hours, experiment with monocyclic RGD compounds (X = 1), NA = did not reach IC50 in the concentrations used, 'a -- b' = bell-shaped curve, read-out: IC50 (nM) of PGA- PTX-E-c(RGDfk) (SEQ ID NO: 16) 2.1 mol % PTX, 5 mol % RGD): 1000 nM

N=C(N)NCCC[C@@H]1NC(=O)[C@H](CCCCNC(=O)CC[C@H](N)C(=O)NCCCC[C@@H]2NC(=O)[C@@H](Cc3ccccc3)NC(=O)[C@H](CC(=O)O)NC(=O)CNC(=O)[C@H](CCCNC(=N)N)NC2=O)NC(=O)[C@@H](Cc2ccccc2)NC(=O)[C@H](CC(=O)O)NC(=O)CNC1=O [E-[c(RGDfk)2]]
effect on HUVEC proliferation ([1]; FIG. 12A): only at high concentrations
effect of free peptides on HUVEC adhesion [2]: completely abrogated HUVEC adhesion
inhibition of the migration of HUVEC towards VEGF [4]: about 30%

PGA-PTX-c(RADfk) (cyclo(RAD[dF]K); not fully specified (residue 5); also: polyglutamic acid polymer conjugate, paclitaxel conjugate)
inhibition of HUVEC adhesion to fibrinogen ([2]; control compared to bis-cyclic RGD-bearing conjugates): ~20%
inhibition of HUVEC adhesion to fibrinogen ([2]; control compared to monocyclic RGD-bearing conjugate): ~50%
IC50 ([3]; PANC02, 72 hours, bis-cyclic RGD compounds (X = 2), NA = did not reach IC50 in the concentrations used, read-out: IC50 (nM) of PGA- PTX-E-[c(RGDfk)2] (SEQ ID NO: 18) 5 mol % PTX, 3.9 mol % RGD): 2600 nM
IC50 ([3]; nM PTX, equivalent doses, FIG. 12C, read-out: IC50 of PANC02 proliferation): ~2000 nM
inhibition of the formation of tubular structures of HUVEC [5]: about 40%
IC50 ([6]; U87, 72 hours, bis-cyclic RGD compounds (X = 2), NA = did not reach IC50 in the concentrations used, 'a -- b' = bell-shaped curve, read-out: IC50 (nM) of PGA- PTX-E-[c(RGDfk)2] (SEQ ID NO: 18) 5 mol % PTX, 3.9 mol % RGD): 65 nM
